In patent publication US20250129045A1, “SMALL MOLECULE PIM AND MTOR KINASE INHIBITOR AND METHODS OF USE THEREOF” (Arizona Board of Regents on Behalf of the University of …, priority 2022, published 2025):
Where two headings read alike, the source gives them in different places.

What was measured:
[1] = Plasma pharmacokinetics after oral dosing in mice; assay type: in vivo, mouse
Experimental: Plasma concentrations of GRG-1-34: These concentrations were determined by high performance liquid chromatography (HPLC) tandem mass spectrometry (MS). Quantification was achieved by GRG-1-34 calibration standards prepared in mouse plasma. GRG-1-34 in calibration standards or authentic samples was extracted by protein precipitation with methanol. After centrifugation, the supernatant was injected onto the HPLC-MS system. HPLC separation was achieved using a C-18 column and a gradient mobile phase of water and acetonitrile, both with 0.1% formic acid. The mass spectrometer was operated in the electrospray positive ion mode with selective reaction monitoring. The calibration curve was linear over the plasma concentration range of 2-1800 ng/ml. The pharmacokinetic analysis was performed using PKSolver 2.0 by a noncompartmental analysis. Murine gavage with GRG 1-34 was approved by the Animal Care Committee of the University of Arizona.
To examine the pharmacokinetics of this class of com-pounds GRG 1-34, one of the active isoforms, was given orally and blood was sampled from 3 mice at each time point (FIG. 21). The plasma concentration of GRG-1-34 peaked at 0.5 h after oral dosing and declined as a function of time. […] It has a large apparent volume of distribution (VZ/F) and apparent systemic clearance (CL/F), likely attributed to low systemic bioavailability (F) after oral dosing. At the maximum blood concentration of […], GRG-1-34 reached a concentration of 4 μM which in cell culture was sufficient to inhibit cell growth.

[2] = tested on: PC3-LN4 cells; test: Western blotting of PC3-LN4 cell lysates; assay type: cell-based, human
Experimental: FIG. 7A: In vitro co-precipitation (Co-PPT) assay was performed with recombinant EDC3 and biotinylated Pim1 using Streptavidin beads with increasing concentrations of the Pim inhibitor VBT5445 (VBT). FIG. 7B: Kinase assays were performed with recombinant EDC3 and Pim1 with increasing concentrations of VBT. FIG. 7C: Cell lysates from PC3-LN4 cells cultured with DMSO, 10 μM VBT, 3 μM AZD5363 (AKTi) and the combination for 6 hrs were subjected to western blotting (WB). […] WBs were performed using the indicated antibodies. FIG. 7E: PC3-LN4 cells were seeded into 48 well plate and incubated with either DMSO, VBT, AZD5363 or the combination, for 4.5 days. A real-time imaging system (IncuCyte™) was used to measure cell proliferation using a non-label cell monolayer confluence approach. FIG. 7F-7H: GFP image in PC3 LN4 GFP EDC3 expressing cells treated with PIMi: VBT (5 μM) and VBT (5 μM)+AZD5363 (3 μM) for 6 hrs.
Extracts were subjected to Western blotting with the indicated antibodies.
Immunoblotting: Western blots were performed as described previously. Briefly, protein lysates (30 μg) were subjected to SDS-PAGE and transferred to nitrocellulose membranes. After blocking with 5% milk in TBST buffer for 30 min at room temperature, the membranes were incubated overnight at 4° C. with the Indicated primary antibody in 3% BSA in TBST. Specific proteins were detected with the corresponding HRP conjugated secondary antibody using enhanced chemiluminescence (GE Lifesciences, Piscataway, NJ).

[3] = tested on: PANC1 cells; test: Reverse-phase protein array (RPPA) of PANC1 cells, Table 3; assay type: cell-based; conditions: 6 h treatment, divided by zero-time value, average of triplicate
Experimental: (§1) To further examine how these compounds function to inhibit tumor growth, changes in both a wide variety of phosphoprotein and protein levels using reverse-phase protein arrays (RPPA) were evaluated. […] The values in the RPPA obtained at these two time points were divided by the value at time zero to allow an evaluation of the changes caused by each drug treatment.

[4] = tested on: PC3-LN4 and PANC1 cells; test: RPPA of PC3-LN4 and PANC1 cells (FIG. 24); assay type: cell-based; conditions: 5 μM, 24 h
Experimental: Tumor cells were treated with or without GRG-1-34 (5 μM) for 24 h and lysates were subjected to RPPA. The results were clustered in the form of heat map created using the Heatmapper web tool. The analysis was completed with the clustering method of Complete Linkage and the distance measurement method of Kendall's Tau.
as §1, with “evaluated. PANC1 and PC3-LN4 cells were treated with GRG1-34 at 5 μM for 24 h.” for “evaluated.”

O=c1c(CNCc2cc(Br)ccn2)cc2ccc(Cl)cc2n1CCOc1ccccc1 [GRG-1-34, 3-((((4-bromopyridin-2-yl)methyl)amino)methyl)-7-chloro-1-(2-phenoxyethyl) quinolin-2 (1H)-one]
half-life ([1]; mouse, plasma, 62 mg/kg, oral, read-out: half-life (T1/2) (converted)): 2.08 h | Cmax ([1]; mouse, plasma, oral, dose of 62 mg/kg, read-out: average maximum plasma concentration (Cmax)): 1990 ng/mL | apparent systemic clearance (CL/F) ([1]; oral): large | maximum blood concentration ([1]; oral): 2 ng/mL | time at which the plasma concentration peaked after oral dosing ([1]; oral (gavage)): 0.5 h | blood concentration reached at the maximum, molar ([1]; oral, level sufficient in cell culture to inhibit growth): 4 µM | cellular level of Pim kinases [2]: decreases | cellular level of c-Myc protein [2]: decreases | mTORC1 activity: phosphorylation of the S6 protein [2]: inhibited the phosphorylation of the mTORC1 substrate S6 protein | phosphorylation of AKT on serine 473 [2]: increased the phosphorylation of AKT on serine 473 | mTORC1 activity: phosphorylation of the S6 protein ([2]; listed as VBT 1-34): decreases | 4EBP1S65, RPPA value after treatment / zero-time value [3]: 0.52 | 4EBP1T70, RPPA value after treatment / zero-time value [3]: 0.75 | ATMS1981, RPPA value after treatment / zero-time value [3]: 0.46 | CICaspase3D175, RPPA value after treatment / zero-time value [3]: 1.09 | CofilinS3, RPPA value after treatment / zero-time value [3]: 0.46 | CrkIIY221, RPPA value after treatment / zero-time value [3]: 1.58 | ERKT202_Y204, RPPA value after treatment / zero-time value [3]: 2.39 | FAKY576_577, RPPA value after treatment / zero-time value [3]: 0.78 | FKHR-FOX01S256, RPPA value after treatment / zero-time value [3]: 0.71 | GSK3a_bS21_9, RPPA value after treatment / zero-time value [3]: 1.66 | HistoneH2AXS139, RPPA value after treatment / zero-time value [3]: 0.76 | HistoneH3S10, RPPA value after treatment / zero-time value [3]: 0.69 | IL-1bcleavedD116, RPPA value after treatment / zero-time value [3]: 0.41 | Jak1Y1022_1023, RPPA value after treatment / zero-time value [3]: 0.79 | MAPKpTEpY, RPPA value after treatment / zero-time value [3]: 1.35 | PDGFRbY751, RPPA value after treatment / zero-time value [3]: 7.02 | PP1aT320, RPPA value after treatment / zero-time value [3]: 0.47 | PaxillinY118, RPPA value after treatment / zero-time value [3]: 1.08 | RetY905, RPPA value after treatment / zero-time value [3]: 0.77 | S6RibosomalPS235_236, RPPA value after treatment / zero-time value [3]: 1.05 | S6RibosomalProtein S240_244, RPPA value after treatment / zero-time value [3]: 0.95 | SAPK_JNKT183_Y185, RPPA value after treatment / zero-time value [3]: 0.85 | Stat2Y690, RPPA value after treatment / zero-time value [3]: 2.89 | Stat3Y705, RPPA value after treatment / zero-time value [3]: 1.57 | Tyk2Y1054_1055, RPPA value after treatment / zero-time value [3]: 0.39 | VEGFR2Y1175, RPPA value after treatment / zero-time value [3]: 0.54 | YAPS127, RPPA value after treatment / zero-time value [3]: 0.68 | cAbIY245, RPPA value after treatment / zero-time value [3]: 0.87 | cKitY703, RPPA value after treatment / zero-time value [3]: 1.8 | p38MAPKT180_Y182, RPPA value after treatment / zero-time value [3]: 1.15 | p70S6KS371, RPPA value after treatment / zero-time value [3]: 0.62 | p70S6KT389, RPPA value after treatment / zero-time value [3]: 0.74 | p90RSKS380, RPPA value after treatment / zero-time value [3]: 1.51 | mTORC signaling pathway on RPPA (mTOR S2448, S6 S235/235, S6K T389, 4E-BP1 S65) [4]: inhibition | phosphorylation of AMPK T172 on RPPA [4]: increased | phosphorylation of acetyl COA carboxylase S79 on RPPA [4]: increased
